Assays:
Assay type in all cases: in vivo, mice (male, Charles River, CD-1)
mice [1] = assay: Metrazol lethality assay (MTZ), anticonvulsant activity; details: Mus musculus, po
Experimental: (§1) The compounds of this invention are also useful as anticonvulsants due to their anticonvulsant activity in mammals. Anticonvulsant activity is measured in male mice using the supramaximal electroshock (SES) assay described in Arch. Int. Pharmacodyn. 92, pp. 97-107, (1952) and the metrazol lethality assay (MTZ) described in J. Pharmacol. Exp. Ther., 81, 402 (1944).
Groups of male mice (Charles River, CD-1), weighing 18 to 30 grams are employed in the Metrazol lethality assay. Test compounds are dissolved in distilled water or if insoluble, suspended in water, to which a surfactant, such as Tween-80 is added. The test compounds are administered orally, the administered dose being dissolved or suspended in 10 ml of solution or suspension per kg of animal body weight. Control animals (2 mice/group) receive water or water and Tween-80, i.e., the vehicle for administration of the test compound. Metrazol (pentylenetetrazol) is dissolved in water (concentration 225 mg of Metrazol/10 ml of solution), and the solution is administered subcutaneously to groups of five animals each at one or more time intervals of 15, 30, 60, 90, or 120 minutes after administration of the test compound. The number of animal alive 15 minutes after treatment with Metrazol is determined and recorded. The following formula is employed to calculate the percent protection against Metrazol lethality. [formula]
A dose range determination is performed by substantially the same procedure as the time response determination. In the dose range determination, five groups of 10 animals per group are employed. This determination is generally reserved for those compounds which protect against lethality by greater than 70% at the screening dose employed.
(§2) The anticonvulsant activity of several of the compounds of this invention as per the SES and MTZ assay procedures is provided in Table 2.

mice [2] = assay: phenyl-p-quinone (phenyl-p-benzoquinone) writhing assay in mice, analgesia
Experimental: The procedure employed to determine analgetic utility is a modification of the phenyl-p-benzoquinone writhing assay in mice, a standard assay for analgesia [Proc. Soc. Exptl. Bio. […] The solution is administered to the subject mice intraperitoneally at a dose of 10 ml per kg of body weight. A characteristic "writhe" an inward rotation of one or more feet with twisting and turning of the trunk, drawing in of the abdominal wall, lordosis and arching of the back, is produced. A total of 28 male mice (Charles River, CD-1), weighing 18 to 30 grams, are employed for a time response. The subject animals receive food and water ad libitum. Test compounds are dissolved in distilled water, or suspended in distilled water containing one drop of a suitable surfactant, such as Tween-80. […] A control group (2 animals per group) receive an equal volume of the vehicle. After the administration of the phenyl-p-quinone, the mice are place separately in one liter beakers, and after five minutes, are observed for ten minutes. The number of writhes for each animal is recorded. The following formula is used to compute the percent inhibition: [formula] The time period with the greatest percent of inhibition is considered the peak time.

mice [3] = assay: supramaximal electroshock (SES) assay, anticonvulsant activity; details: Mus musculus, ip
Experimental: as §1
Groups of male mice (Charles River, CD-1) weighing 18 to 30 g are employed in the SES assay. Test compounds are dissolved in distilled water, or if insoluble, suspended in water containing one drop of a surfactant, such as Tween-80. Test compounds are generally administered intraperitoneally at a dose of 10 ml of solution, or suspension, per kg of animal body weight. The output terminals of an A.C. shocker, which delivers 206 volts rms for 300 msec, are placed across the animals' eyes, an electrode paste coating assuring contact of the terminals with the eyes. The test compound is administered and thereafter the subject animals are shocked.
Protection is expressed as normalized percent inhibition relative to vehicle control. [formula] A time response is carried out using 6 animals per group. Animals are tested at 30, 60 and 120 minutes post drug. Additional time periods are tested if indicated by previous tests. A dose range determination is generally reserved for those compounds which inhibit convulsions by greater than about 45-55% at the screening dose employed at the time the test was performed. When the peak activity time has been determined, a dose response is initiated, using 10 animals per group at that time period.
as §2

With `CNC(=O)N1CCC(Oc2c(F)c(F)c(F)c(F)c2F)(c2ccccc2)CC1` [1-(N-Methylamino)carbonyl-4-(2,3,4,5,6-pentafluorophenoxy)-4-phenylpiperidine] as the compound, how does the ED50 (mice [1]) read?
Its ED50 is 64.3 mg/kg.

With `CNC(=O)N1CCC(Oc2ccc([N+](=O)[O-])cc2)(c2ccccc2)CC1` [1-(N-Methylamino)carbonyl-4-(4-nitrophenoxy)-4-phenylpiperidine] as the compound, how does the “Analgesic Activity: % Inhibition of writhing at a screening dose of 20 mg/kg, s.c.” value (“Analgesic Activity: % Inhibition” below) (mice [2]) read?
The value was 34%.

And the ED50 (mice [1])?
Its ED50 is 55.2 mg/kg.

Which ED50 (mice [3]) does the source give for `CNC(=O)N1CCC(Oc2cccc(C(F)(F)F)c2)(c2ccccc2)CC1` [1-(N-Methylamino)carbonyl-4-phenyl-4-(3-trifluoromethylphenoxy)piperidine] here?
Its ED50 is 43.5 mg/kg.

With `CNC(=O)N1CCC(Oc2ccc(C(F)(F)F)cc2)(c2ccccc2)CC1` [1-(N-Methylamino)carbonyl-4-phenyl-4-(4-trifluoromethylphenoxy)piperidine] as the compound, how does the ED50 (mice [1]) read?
Its ED50 is 41.2 mg/kg.

Which “Analgesic Activity: % Inhibition” value (mice [2]) does the source give for `CC(=O)N1CCC(Oc2c(F)c(F)c(F)c(F)c2F)(c2ccccc2)CC1` [1-Acetyl-4-(2,3,4,5,6-pentafluorophenoxy)-4-phenylpiperidine] here?
The value was 38%.

What about the ED50 (mice [1]) of the same compound?
The ED50 was 60.5 mg/kg.

Which results are given for `CC(=O)N1CCC(Oc2cccc(Cl)c2)(c2ccccc2)CC1` [1-Acetyl-4-(3-chlorophenoxy)-4-phenylpiperidine]?
Analgesic Activity: % Inhibition of writhing at a screening dose of 20 mg/kg, s.c. (mice [2]): 33%; ED50 (mice [3]): 55.4 mg/kg

Which “Analgesic Activity: % Inhibition” value (mice [2]) does the source give for `CC(=O)N1CCC(Oc2cccc(C(F)(F)F)c2)(c2ccccc2)CC1` [1-Acetyl-4-phenyl-4-(3-trifluoromethylphenoxy)piperidine] here?
The value was 48%.

Which “Analgesic Activity: % Inhibition” value (mice [2]) does the source give for `CC(=O)N1CCC(Oc2ccc(C(F)(F)F)cc2)(c2ccccc2)CC1` [1-Acetyl-4-phenyl-4-(4-trifluoromethylphenoxy)piperidine] here?
The value was 32%.

And the ED50 (mice [1])?
Its ED50 is 44.8 mg/kg.

What about the ED50 (mice [3]) of the same compound?
The ED50 was 32.1 mg/kg.

How did the “Analgesic Activity: % Inhibition” value (mice [2]) turn out when `NC(=O)N1CCC(Oc2ccc([N+](=O)[O-])cc2)(c2ccccc2)CC1` [1-Aminocarbonyl-4-(4-nitrophenoxy)-4-phenylpiperidine] was run?
The value was 42%.

How did the ED50 (mice [1]) turn out when `O=C(Cn1ccnc1)N1CCC(Oc2c(F)c(F)c(F)c(F)c2F)(c2ccccc2)CC1` [1-[2-(Imidazol-1-yl)acetyl]-4-(2,3,4,5,6-pentafluorophenoxy)-4-phenylpiperidine] was run?
The ED50 was 38 mg/kg.

How did the “Analgesic Activity: % Inhibition” value (mice [2]) turn out when `CC(=O)Oc1ccccc1C(=O)O` [asprin, reference compound] was run?
Its value is 33%.

How did the ED50 (mice [3]) turn out when `CCC1(c2ccccc2)C(=O)NC(=O)NC1=O` [phenobarbital, reference compound] was run?
The ED50 was 8.4 mg/kg.
